In brackets after ≈: the same amount, converted by molar mass.
Legend:
[1] = system: Mycobacterium tuberculosis strain H37Rv; test: Test 2: MIC determination against M. tuberculosis, resazurin fluorescence; format: cell-based; conditions: Mycobacterium tuberculosis, H37RV, Test 2, M. tuberculosis H37Rv; for MIC90: read-out: Bacterial activity MIC90; for IC50: read-out: Bacterial activity pMIC50 (converted)
[2] = Metabolic stability in liver microsomes (intrinsic clearance); format: in vitro ADME; conditions: mouse, microsomes; for half-life at 1 µM: pH 7.4, Metabolic Stability Half life (mouse, min.); for microsomal CLint at 1 µM: pH 7.4, mouse liver microsomes, read-out: Metabolic Stability (liver microsome intrinsic clearance) Clearance (mouse, μl/min./mg protein)
Procedure: The test compound was incubated under the generic condition (0.5 mg/ml microsomal protein, 1 mM NADPH, 1 mM MgCl2, and 0.1 M phosphate buffer, pH 7.4, 37° C.) at a defined substrate concentration (typically 1 μM) in liver microsomes of selected species across a time course (typically 0, 5, 10, 20, 40 and 60 minutes) at Cyprotex (Cheshire, UK). The liver microsomes, buffer and test compound will be pre-incubated for 5 minutes. The addition of the co-factor NADPH will initiate the reaction and the reaction was terminated by addition of acetonitrile. The samples were centrifuged prior to analysis by LC-MS/MS analysis. The relative amount of parent compound remaining in the active incubations vs. the control incubations (t=0 mins) for each compound was measured by peak area comparison. The in vitro metabolic half-life (t1/2) was calculated using the slope of the log-linear regression from the percentage parent compound remaining versus time relationship (κ), The in vitro intrinsic clearance (Cl^int) (μl/min/mg microsomal protein) was calculated using the in vitro metabolic half-life, incubation volume and the weight of microsomal protein in the incubation.

Row | SMILES | MIC90 [1] [µM] | IC50 [1] [pM] | half-life at 1 µM [2] [min] | microsomal CLint at 1 µM [2] [µL/min/mg]
1 | CCc1nc2ncc(OC)cn2c1C(=O)NCc1ccc(-c2nc3n(n2)CC[C@H](C(F)(F)F)C3)cc1 [Compound 49] | 0.023 (≈ 0.0115 µg/mL) | 7760 | 108 | 12.9
2 | O=C(NCc1ccc(-c2nc3n(n2)CC[C@@H](C(F)(F)F)C3)cc1)c1c(C(F)F)nc2n1CCCC2 [Compound 80] | 0.2 (≈ 0.0989 µg/mL) | 56200 | 84.9 | 16.3
3 | O=C(NCc1ccc(-c2nc3n(n2)CC[C@H](C(F)(F)F)C3)cc1)c1c(C(F)F)nc2n1CCCC2 [Compound 174] | 0.25 (≈ 0.124 µg/mL) | 67600 | 80.3 | 17.3
4 | CCc1nc2ncccn2c1C(=O)NCc1ccc(-c2cc3n(n2)CCC(C(F)(F)F)C3)cc1 (centres unmarked) [Compound 180] | 0.12 (≈ 0.0562 µg/mL) | 20000 | 141 | 9.9
5 | CCc1nc2ncccn2c1C(=O)NCc1ccc(-c2cn3c(n2)CC(C(F)(F)F)CC3)c(F)c1 (centres unmarked) [Compound 186] | 0.19 (≈ 0.0924 µg/mL) | 40700 | > 180 | < 7.7
6 | CCc1nc2n(c1C(=O)NCc1ccc(-c3nc4n(n3)CC(C(F)(F)F)CC4)cc1)CCCC2 (centres unmarked) [Compound 188] | 0.23 (≈ 0.109 µg/mL) | 22900 |  | 
7 | CCc1nc2ncccn2c1C(=O)NCc1ccc(-c2nc3n(n2)CCC(C(C)(F)F)C3)cc1 (centres unmarked) [Compound 189] | 0.33 (≈ 0.154 µg/mL) | 87100 |  | 
8 | CCc1nc2ncccn2c1C(=O)NCc1ccc(-c2nc3n(n2)CC[C@H](C(F)(F)F)C3)cc1 [Compound 190] | 0.19 (≈ 0.0892 µg/mL) | 47900 |  | 
9 | CCc1nc2ncc(C(F)(F)F)cn2c1C(=O)NCc1ccc(-c2cn3c(n2)C[C@H](C(F)(F)F)CC3)cc1 [Compound 192] | > 5 | 1.55e+06 |  | 
10 | CCc1nc2ncc(C(F)(F)F)cn2c1C(=O)NCc1ccc(-c2cn3c(n2)C[C@@H](C(F)(F)F)CC3)cc1 [Compound 193] | > 0.5 | > 501000 |  | 
11 | CCc1nc2ncc(N)cn2c1C(=O)NCc1ccc(-c2nc3n(n2)CCC(C(F)(F)F)C3)c(F)c1 (centres unmarked) [Compound 197] | 0.21 (≈ 0.106 µg/mL) | 69200 |  | 
12 | CCc1nc2ncc(N)cn2c1C(=O)NCc1ccc(-c2nc3n(n2)CCC(C(F)(F)F)C3)c(C)c1 (centres unmarked) [Compound 198] | 0.15 (≈ 0.0748 µg/mL) | 45700 |  | 
13 | CCc1nc2ncc(N)cn2c1C(=O)NCc1ccc(-c2nc3n(n2)CCCC3)cc1 [Compound 199] | > 0.5 | > 501000 |  | 
14 | CCc1nc2ncc(N)cn2c1C(=O)NCc1ccc(-c2nc3n(n2)CCC(C(C)(F)F)C3)cc1 (centres unmarked) [Compound 200] | 0.22 (≈ 0.106 µg/mL) | 61700 |  | 

From patent publication US20250034171A1, “IMIDAZOPYRIDINE AMIDES AND RELATED COMPOUNDS FOR USE IN THE TREATMENT OF BACTERIAL INFECTIONS” (priority 2021, published 2025)
